Molecular target: T1, Aspartate-semialdehyde dehydrogenase (Helicobacter pylori (strain ATCC 700392 / 26695) (Campylobacterpylori), UniProt O25801)
T1 sequence (O25801 whole entry): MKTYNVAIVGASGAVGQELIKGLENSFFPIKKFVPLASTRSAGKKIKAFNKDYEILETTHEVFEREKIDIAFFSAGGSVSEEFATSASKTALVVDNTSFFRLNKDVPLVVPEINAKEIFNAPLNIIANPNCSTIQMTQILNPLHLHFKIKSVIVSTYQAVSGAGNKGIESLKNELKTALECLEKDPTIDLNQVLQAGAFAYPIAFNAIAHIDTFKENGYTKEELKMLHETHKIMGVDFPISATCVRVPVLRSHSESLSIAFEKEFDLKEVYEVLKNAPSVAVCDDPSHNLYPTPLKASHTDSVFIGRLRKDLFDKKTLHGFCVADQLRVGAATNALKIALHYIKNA
Assay: Inhibition of Helicobacter pylori His-tagged ASD assessed as inhibition of phosphorylation of aspartate semialdehyde

Row | IC50 | SMILES
1 | 0.18 µM | N[C@@H](CSS(=O)(=O)O)C(=O)O
2 | 306 µM | C[n+]1ccc2c(c1)c(O)c1c3c(c4cc(Br)ccc4nc32)C(=O)C[N+]1(C)C [PETROSAMINE B]
